Where two headings read alike, the source gives them in different places.
Biological target: human CB2R (Homo sapiens, UniProt P34972)
Assay: CB2R mediated modulation of cAMP synthesis
Format: cell-based
Method in brief: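 cAMP measured with the DiscoverX-XS kit after 30 min, 37° C. compound exposure of human CB2R-expressing CHO cells stimulated by 10 uM forskolin (1 mM IBMX, 0.25% BSA).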

human CB2R, sequence (P34972 whole entry): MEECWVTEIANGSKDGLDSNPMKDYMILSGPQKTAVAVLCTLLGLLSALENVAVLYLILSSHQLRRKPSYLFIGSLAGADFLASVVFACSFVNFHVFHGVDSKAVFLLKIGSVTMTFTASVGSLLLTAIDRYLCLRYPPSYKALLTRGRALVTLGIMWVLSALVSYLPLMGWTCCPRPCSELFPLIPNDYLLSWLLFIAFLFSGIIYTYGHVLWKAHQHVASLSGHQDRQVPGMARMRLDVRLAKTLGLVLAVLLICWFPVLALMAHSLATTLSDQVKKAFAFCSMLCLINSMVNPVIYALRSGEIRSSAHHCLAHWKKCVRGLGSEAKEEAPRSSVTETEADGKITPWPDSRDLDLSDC

EC50 (CHO cells expressing human CB2R, inhibition of forskolin-stimulated cAMP synthesis, mean, read-out: CB2 CAMP @ EC50 nM (mean)) [nM] | Structure (SMILES) | EC50 [nM]
12.7 | O=C(Nc1nc2c(s1)CCCC2)[C@@H]1CCCN1c1ccc(Cl)cc1 [(S)-1-(4-Chloro-phenyl)-pyrrolidine-2-carboxylic acid (4,5,6,7-tetrahydro-benzothiazol-2-yl)-amide] | 
 | O=C(Nc1nc(C2CCCCC2)cs1)[C@@H]1CCCN1c1ccc(Cl)cc1 [(S)-1-(4-Chloro-phenyl)-pyrrolidine-2-carboxylic acid (4-cyclohexyl-thiazol-2-yl)-amide] | 35.5
 | CC(C)(C)c1cc(NC(=O)[C@@H]2CCCN2CC2CC2)on1 [(S)-1-Cyclopropylmethyl-pyrrolidine-2-carboxylic acid (3-tert-butyl-isoxazol-5-yl)-amide] | 11.4
 | O=C(Nc1nc(C2CCCCC2)cs1)[C@@H]1C[C@@H](O)CN1CC1CCOCC1 [(2S,4R)-4-Hydroxy-1-(tetrahydro-pyran-4-ylmethyl)-pyrrolidine-2-carboxylic acid (4-cyclohexyl-thiazol-2-yl)-amide] | 150

— patent US8629157B2, “Pyrrolidine compounds which modulate the CB2 receptor” (Boehringer Ingelheim International GmbH, priority 2009, dated 2014)
